# Test results from patent US10165772B2, “Methods and compounds for increasing red blood cell survival” (priority 2008, dated 2019).
# Tests used:
# Assay type in all cases: cell-based
# [1] = system: human red blood cell (RBC); experiment: Human RBC survival in vitro in RPMI 1640, viable/dead cells by flow cytometry (FSC/SSC); conditions: for RBC survival as compared to RBCs cultured in the presence of buffer only: 7 days at 37° C., 1, 10, 100 μM tested (FIG. 13); for protecting effect on RBCs (survival versus vehicle control): 100 μM, RPMI 1640
# Method: RBCs were incubated in vitro at 37° C., and cells were analyzed by flow cytometry for assessment of the relative proportions of dead and viable cells. Forward scatter (FSC)/side scatter (SSC) dot plots of RBCs incubated in the presence or absence of 5-HT (100 μM) are shown in (A) to (E) for the indicated time points. Two main regions of analysis are set, R1 (left box) and R2 (right box), corresponding to dead and viable RBCs, respectively. The proportion of viable cells remaining at each time-point is indicated next to the R2 region (upper right in the dot plots). (F) Typical concentration-dependent effects of 5-HT (0-100 μM) on RBCs incubated for different periods of time;
# RBCs were incubated for various lengths of time in the RPMI 1640 medium at 37° C. (A), at room temperature (21 to 23° C.) (B), or at 4° C. (C). 5-HT (100 μM, black circles) or vehicle control (white circles) was added before incubation at Day 0, and cell viability was assessed by flow cytometry at several times as indicated;
# RBCs were incubated for 7 days at 37° C. in the presence or absence of different concentrations of the indicated indole compounds (white bars =1 μM; grey bars=10 μM; black bars:100 μM). As a control, RBCs were incubated in the presence of the appropriate buffer (without the compounds). RBCs survival in the presence of a given compound is expressed as the percentage of survival relative to the control.
# Red blood cells isolation. Venous blood was drawn from healthy volunteers, and RBCs were isolated by centrifugation at 800 rpm to remove platelet-rich plasma, and white blood cells. The resulting pellet of RBCs was washed three times in NaCl 0.9% by centrifugation at 3000 rpm. RBCs were incubated at 37° C., 5% CO2 in 24-well microplates at a concentration of 1x10^6 cells/ml in RPMI 1640 medium without phenol red containing HEPES/NaOH (pH 7.4) and penicillin (100 U/ml)/streptomycin ([…]).
# (§1) Cell culture. Drugs [serotonin (Catalog No. H9525), melatonin (Catalog No. M5250), pindolol (Catalog No. P0778) and indomethacin (Catalog No. 18280)] were all purchased from Sigma-Aldrich. They were added at the indicated concentrations at the beginning of cell incubation (Day 0). Cells were harvested at specific time-points and analyzed by flow cytometry (FACScan™, Becton Dickinson) according to forward and side scatters (FSC and SSC, respectively). FSC is proportional to cell size, while SSC is proportional to cell complexity, which may reflect hemoglobin content of RBCs. The relative proportions of viable and dead RBCs were calculated by setting appropriate regions on the dot plots. In some experiments, RBCs were sorted according to FSC and SSC. Cell density was checked routinely by inverted light microscopy, and cell morphology was assessed by May Grünwald-Giemsa staining followed by light microscopy.
# [2] = system: human RBCs; experiment: RBC density and morphology by May Grünwald-Giemsa staining and light microscopy
# Method: (C). Cells were incubated in the presence or absence of 5-HT. The density of RBC suspension and their morphology were assessed by May Grünwald-Giemsa staining;
# as §1
# To evaluate the morphology of the two populations of RBCs, these cells were sorted by flow cytometry according to their FSC/SSC characteristics, and stained by the May Grünwald-Giemsa method. […] Cells with intermediate amounts of hemoglobin (between normochromic and hypochromic) were also present in the R2 region (FIG. 2, upper right panel). […] At day 7, in the absence of 5-HT, fewer cells were present, and the majority of these cells were hypochromic with cytoplasmic inclusions (FIG. 3B, left panels).
# [3] = system: human RBCs; experiment: Survival of human RBCs cultured in AS-3 additive solution, flow cytometry; conditions: 100 μM
# Method: AS-3 is an additive solution commonly used for storage of RBCs. RBCs were incubated in home-made (A) and commercially available (B) AS-3 solution (Haemonetics, Catalog No. 0460a-00) for various lengths of time at 4° C. in the absence (white circles) or presence (100 μM, black circles) of 5-HT, and cell viability was assessed by flow cytometry at several times as indicated. The home-made AS-3 was prepared in sterile water as follows: Sodium chloride (NaCl, 2.35 g), D-Glucose (Dextrose, 5.5 g), Adenine (0.15 g), Citric Acid (0.21 g), Sodium Phosphate dibasic (Na2HPO4 anhydrous, 1.380 g) were dissolved in 500 ml of sterile water. The pH of the solution was adjusted at 7.39;
# as §1, with “They were added at the indicated concentrations at the beginning of cell incubation (Day 0).” left out, “FSC is proportional to cell size, while SSC is proportional to cell complexity, which may reflect hemoglobin content of RBCs.” left out, “In some experiments, RBCs were sorted according to FSC and SSC.” left out
# The effect of 5-HT on the survival of human RBCs cultured in AS-3 solution was assessed. […]
# [4] = system: mouse RBCs; experiment: Survival of mouse RBCs cultured at 37° C., flow cytometry; conditions: day 1 to day 7, 0-100 μM
# Method: Mouse RBCs were cultured at 37° C. for the indicated periods of time, in the presence of increasing concentrations of 5-HT (0-100 μM). Cell viability was assessed by flow cytometry at day 1 (A), day 2 (B), day 3 (C), day 5 (D) and day 7 (E), and the percentage of viable cells (% of cells in R2) is indicated;
# as §1, with “microscopy. […]” for “microscopy.”
structure (smiles),measurement,setting,value
CC(C)NCC(O)COc1cccc2[nH]ccc12 (centres unmarked) [pindolol],RBC survival as compared to RBCs cultured in the presence of buffer only,[1],increased survival
COc1ccc2[nH]cc(CCNC(C)=O)c2c1 [melatonin],RBC survival as compared to RBCs cultured in the presence of buffer only,[1],increased survival
COc1ccc2c(c1)c(CC(=O)O)c(C)n2C(=O)c1ccc(Cl)cc1 [indomethacin],RBC survival as compared to RBCs cultured in the presence of buffer only,[1],increased survival
"NCCc1c[nH]c2ccc(O)cc12 [5-HT, serotonin]",concentration giving optimal effect on RBC viability,"[1]; 0-100 μM tested, 37° C., FIG. 1F",100 µM
same,protecting effect on RBCs (survival versus vehicle control),[1]; 4° C.,is observed
same,protecting effect on RBCs (survival versus vehicle control),[1]; 37° C.,is observed
same,percentage of viable RBCs as compared to controls without 5-HT,"[1]; all time-points (day 0 to 21), 37° C., 5-HT 100 μM",higher
same,protecting effect on RBCs (survival versus vehicle control),[1]; room temperature (21-23° C.),is observed
same,RBC morphology (normochromic / hypochromic),[2]; 91 days at 4° C.,normochromic red blood cells are observed
same,RBC morphology (normochromic / hypochromic),"[2]; day 7, 37° C.",the majority of these cells were normochromic
same,"number of cells remaining, as judged by cell density","[2]; day 7, 37° C., versus absence of 5-HT",a greater number of cells remained
same,survival of RBCs versus absence of 5-HT,"[3]; commercially available AS-3, 4° C.",increases the survival
same,survival of RBCs versus absence of 5-HT,"[3]; home-made AS-3, 4° C.",increases the survival
same,proportion of viable mouse RBCs versus 5-HT-free cultures,[4],higher
